The subject of this experiment is PC3 cells. Kind of experiment: Immunoblot of HMW/LMW PARP1 in chromatin fractions. The format is cell-based, human. The conditions noted are these: normalized to DMSO = 1, IR 7 Gy, replicates. As to the method: To identify suitable cell lines to test PARGi, we evaluated PARG protein expression patterns on a panel of prototypic cancer cell lines. Cells were fractionated into cytoplasmic, nuclear and chromatin, and then PARG expression and localization were evaluated using an anti-PARG antibody (Fig. 4a). A varying level of PARG was detected in three cellular compartments. In prostate adenocarcinoma (PC3) and breast mammary epithelial (MCF-7) cells, PARG level was the highest in the cytoplasm, followed by the nucleus, with the lowest seen in the chromatin fraction. […] The PC3 cell line, with one of the highest levels of PARG expression, was selected for our initial PARGi testing. PC3 cells were treated with either DMSO or JA2131 for 2 h, then exposed to 7 Gy of IR and allowed to recover for a designated time period before harvesting and cell fractionation. Chromatin fractions of the cell lysates were analyzed by immunoblotting with PARP1 specific antibody (Fig. 4b), and the PARylation states of PARP1 were monitored as a marker for PARG inhibition. […] In these cells, PARylated PARP1 in response to PARG inhibition appeared as a discrete HMW (DHMW) proteins with limited smearing, as observed previously. […] To assess whether DHMW was due to PARylation and not any other post-translational modifications, chromatin fractions of the PARGi-treated PC3 cell-lysates were treated with purified PARG, followed by anti-PARP1 western blotting. This led to the restoration of LMW PARP1, indicating PARylation was indeed causing the DHMW (Fig. 4c, d). Thus, a dynamic equilibrium between DHMW and LMW nuclear PARP1 exists in cells, and PARGi shifts this equilibrium towards DHMW.
Fig. 4 JA2131 induces hyperPARylation of PARP1. a Subcellular PARG protein expression patterns in cultured cells. […] Chromatin bound cell-extracts were analyzed with anti-PARP1 antibody (upper panel) followed by probing with total Histone H2AX (t-H2AX, lower panel) as the loading control. c DMSO or 2131-treated PC3 cells were irradiated and recovered for 2 h as above, chromatin fractions were then incubated with or without purified PARG enzyme (±PARG) for 30 min at 37 °C then immunoblotted with anti-PARP1 (upper panel) and then with anti-histone H3 (lower panel) as loading control. d Quantitative analysis of western blot of b, where expression of PARP1 levels in DMSO treated was normalized to 1. […]
For orientation: Immunoblotting shows a protein as a band on a membrane.

The mark [1] stands for this setting: chromatin fraction incubated with purified PARG (+).

The text below walks through data of PMC6906431, “Selective small molecule PARG inhibitor causes replication fork stalling and cancer cell death” (Nature Communications, 2019).

Each structure is given as a SMILES string. Where “and” joins values, the source holds several entries; their conditions need not be identical. Equal entries are not always repeated.

On to `Cn1c(=S)c2[nH]c(SCCN3CCOCC3)nc2n(C)c1=O` [JA2131], for which, under setting [1], the “HMW PARP1” value was 0.2746 and 0.8185 and 0.3259; the “LMW PARP1” value is 1.147 and 1.092 (2×). Moreover, where the note is “without added purified PARG”, the “HMW PARP1” value is 0.6751 and 1.387 and 4.419; the “LMW PARP1” value is 0.7041 and 0.9592 (2×).
